Drawing on paper PMC4982440, “PDK1-SGK1 Signaling Sustains AKT-Independent mTORC1 Activation and Confers Resistance to PI3Kα Inhibition” (Cancer Cell, 2016), this text covers IC50 for 1 molecule.

Structures are written as SMILES.

Broadly, the IC50 is the concentration needed to halve the response being measured.

Type in all cases: biochemical
For assay [1], the target named is T1, SGK3 (Homo sapiens, UniProt Q96BR1).
T1 sequence (Q96BR1 1-496): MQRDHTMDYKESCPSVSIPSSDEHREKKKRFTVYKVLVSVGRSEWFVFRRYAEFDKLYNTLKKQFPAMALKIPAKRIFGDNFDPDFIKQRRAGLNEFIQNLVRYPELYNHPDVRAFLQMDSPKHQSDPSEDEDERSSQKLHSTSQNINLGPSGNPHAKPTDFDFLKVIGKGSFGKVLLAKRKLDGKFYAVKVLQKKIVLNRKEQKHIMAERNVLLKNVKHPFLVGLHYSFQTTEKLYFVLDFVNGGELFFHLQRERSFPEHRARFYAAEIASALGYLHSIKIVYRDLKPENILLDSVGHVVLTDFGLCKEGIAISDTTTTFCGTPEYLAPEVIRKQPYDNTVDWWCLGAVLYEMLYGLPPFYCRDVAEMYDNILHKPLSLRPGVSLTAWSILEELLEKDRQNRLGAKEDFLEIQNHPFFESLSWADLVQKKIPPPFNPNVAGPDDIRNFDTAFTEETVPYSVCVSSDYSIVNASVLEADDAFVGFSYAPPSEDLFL
Description: in vitro kinase assay.

Assay [2] has as its target T2, SGK2 (Homo sapiens, UniProt Q9HBY8).
T2 sequence (Q9HBY8 1-367): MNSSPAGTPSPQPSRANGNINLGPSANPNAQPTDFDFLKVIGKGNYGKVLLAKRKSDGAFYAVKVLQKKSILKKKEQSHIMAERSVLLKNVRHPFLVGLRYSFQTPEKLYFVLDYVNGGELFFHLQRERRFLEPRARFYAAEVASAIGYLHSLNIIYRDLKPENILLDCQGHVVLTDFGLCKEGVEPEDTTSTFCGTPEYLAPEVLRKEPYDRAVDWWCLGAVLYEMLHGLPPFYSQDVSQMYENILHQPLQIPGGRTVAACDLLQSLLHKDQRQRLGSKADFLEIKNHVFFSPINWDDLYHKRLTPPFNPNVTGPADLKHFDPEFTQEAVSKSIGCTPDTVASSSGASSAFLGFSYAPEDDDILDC
As to the kind of experiment: in vitro kinase assay.

The target of assay [3] is T3, S6K (Homo sapiens, UniProt P23443).
T3 construct: gene RPS6KB1; recombinant S6K
As to the kind of experiment: recombinant in vitro kinase assay.

T3 sequence (P23443 whole entry): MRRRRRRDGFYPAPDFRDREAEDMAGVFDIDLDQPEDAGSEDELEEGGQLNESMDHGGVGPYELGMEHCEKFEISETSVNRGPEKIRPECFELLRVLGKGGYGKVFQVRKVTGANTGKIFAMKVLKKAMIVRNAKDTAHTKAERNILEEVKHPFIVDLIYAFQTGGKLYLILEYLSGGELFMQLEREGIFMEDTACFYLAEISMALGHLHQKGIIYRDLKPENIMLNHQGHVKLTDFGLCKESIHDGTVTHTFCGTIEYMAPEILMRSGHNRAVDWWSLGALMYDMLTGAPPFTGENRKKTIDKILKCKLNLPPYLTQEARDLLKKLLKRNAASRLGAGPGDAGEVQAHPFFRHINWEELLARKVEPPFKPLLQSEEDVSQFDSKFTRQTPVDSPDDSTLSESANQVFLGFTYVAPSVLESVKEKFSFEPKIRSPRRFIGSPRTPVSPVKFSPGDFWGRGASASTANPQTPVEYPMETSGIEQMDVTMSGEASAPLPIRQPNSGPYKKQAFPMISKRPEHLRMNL

As for `Nc1n[nH]c2nc(-c3ccc(NS(=O)(=O)c4cccc(Cl)c4Cl)cc3)cnc12` [SGK1-inh], the figures for the IC50 in assay [1], in assay [2] and in assay [3] were 590 nM, 2.8 nM and 33 nM, respectively.
